Source: PMC9149120 (Cell, 2022)
Peptide text beside a SMILES is read from it. * marks the point of attachment. Cbz = O=C(OCc1ccccc1)*; CH2F = FC*

Assays:
[1] = target: T1, PAAN/MIF nuclease (Homo sapiens, UniProt P14174); assay: In vitro PAAN/MIF nuclease assay; format: biochemical; settings: for inhibition of PAAN/MIF nuclease activity: PS30 substrate, indicated doses, n = 4, Figure 4H; for inhibition of the nuclease activity of PAAN/MIF by MIF tautomerase inhibitors: 10 μM p-425, 50 μM ISO-1, 10 μM AV411, n = 5, Figure 4I
T1 sequence (P14174 1-115): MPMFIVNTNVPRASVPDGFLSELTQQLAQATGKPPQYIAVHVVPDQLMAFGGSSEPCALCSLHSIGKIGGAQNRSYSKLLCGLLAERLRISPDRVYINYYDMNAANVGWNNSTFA

[2] = test system: SH-SY5Y cells; assay: MNNG-induced parthanatic cell death, Alamar blue viability; format: cell-based; settings: for inhibition of MNNG-induced parthanatic cell death: 0.5 or 1 μM, 50 μM MNNG 15 min, n = 4, Figure S5I; for inhibition of parthanatic cell death by MIF tautomerase inhibitors: 10 μM p-425, 50 μM ISO-1, 10 μM AV411, 50 μM MNNG 15 min, n = 5, Figure 4J
[3] = test system: SH-SY5Y cells; assay: Staurosporine; format: cell-based; settings: 0.5 μM STS, n = 3; Figure S4F
[4] = test system: HT 22 cells; assay: TNF-α and Z-VAD-induced necroptosis, Alamar blue; format: cell-based; settings: 1 ng/mL TNF-α with 50 μM z-VAD, n = 3; Figure S4G
[5] = test system: human cortical neurons; assay: Human α-syn PFF-induced cell death, Hoechst/PI staining; format: cell-based; settings: 0.5 or 1 μM, pre-incubated 1 h, human α-syn PFF 14 days, n = 4; Figure 3G
[6] = test system: PC-3 prostate cancer cells; assay: Tumor cell viability alone or with alantolactone; format: cell-based; settings: 0.5–8 μM combined with 10 μM ATL, 72 h, n = 3; Figure S5D
[7] = test system: cortical neurons; assay: Nuclear translocation of AIF and PAAN/MIF after α-syn PFF; format: cell-based, mouse; settings: n = 3
[8] = test system: primary cortical neurons; assay: α-syn PFF-induced PARP activation; format: cell-based, mouse; settings: AP5 50 μM or NBQX 10 μM pre-incubated 1 h, α-syn PFF 3 days, n = 3; Figure S3A

## CO[C@H]1C[C@@H]2CC[C@@H](C)[C@@](O)(O2)C(=O)C(=O)N2CCCC[C@H]2C(=O)O[C@H]([C@H](C)C[C@@H]2CC[C@@H](O)[C@H](OC)C2)CC(=O)[C@H](C)/C=C(\C)[C@@H](O)[C@@H](OC)C(=O)[C@H](C)C[C@H](C)/C=C/C=C/C=C/1C [rapamycin]
[1]
  inhibition of PAAN/MIF nuclease activity: failed to inhibit
[2]
  inhibition of MNNG-induced parthanatic cell death: failed to inhibit

## C[C@]1(c2nc3c(C(N)=O)cccc3[nH]2)CCCN1 [ABT-888]
[3]
  inhibition of staurosporine (STS)-induced apoptotic cell death: did not inhibit
[4]
  prevention of TNF-α and Z-VAD-induced necroptosis: not prevented
[5]
  protection against cell death: protected against cell death
[6]
  tumor toxicity induced by alantolactone (ATL): enhancement of tumor toxicity
[7]; ABT-888 1 μM, Figure 2A
  α-syn PFF-induced nuclear translocation of PAAN/MIF and AIF: attenuated

## C=CC[C@@H]1/C=C(\C)C[C@H](C)C[C@H](OC)[C@H]2O[C@@](O)(C(=O)C(=O)N3CCCC[C@H]3C(=O)O[C@H](/C(C)=C/[C@@H]3CC[C@@H](O)[C@H](OC)C3)[C@H](C)[C@@H](O)CC1=O)[C@H](C)C[C@@H]2OC [FK506]
[1]
  inhibition of PAAN/MIF nuclease activity: failed to inhibit
[2]
  inhibition of MNNG-induced parthanatic cell death: failed to inhibit

## NC(CCCP(=O)(O)O)C(=O)O (centres unmarked) [AP5]
[7]; AP5 50 μM or NBQX 10 μM pretreatment, Figure S3B
  nuclear translocation of AIF and MIF: attenuated
[8]
  α-syn PFF-induced PARP activation: inhibited

## CN1C(=O)C(Cc2c[nH]c3ccccc23)NC1=S (centres unmarked) [Nec-1]
[4]
  prevention of TNF-α and Z-VAD-induced necroptosis: prevented necroptosis

## COC(=O)C[C@H](NC(=O)[C@H](C)NC(=O)[C@@H](NC(=O)OCc1ccccc1)C(C)C)C(=O)CF [Z-VAD] (Cbz-Val-Ala-Asp(OMe)-CH2F)
[3]
  inhibition of staurosporine (STS)-induced apoptotic cell death: prevented

## COC(=O)CC1CC(c2ccc(O)cc2)=NO1 (centres unmarked) [ISO-1]
[1]
  inhibition of the nuclease activity of PAAN/MIF by MIF tautomerase inhibitors: failed to inhibit
[2]
  inhibition of parthanatic cell death by MIF tautomerase inhibitors: failed to inhibit

## CC(C)C(=O)c1c(C(C)C)nn2ccccc12 [Ibudilast]
[1]
  inhibition of the nuclease activity of PAAN/MIF by MIF tautomerase inhibitors: failed to inhibit
[2]
  inhibition of parthanatic cell death by MIF tautomerase inhibitors: failed to inhibit
